# Laboratory results reported in article PMC4752739, “Functional structure and antimicrobial activity of persulcatusin, an antimicrobial peptide from the hard tick Ixodes persulcatus” (Parasites & Vectors, 2016).
# Where a SMILES comes first, the peptide text is derived from it. Bridges are numbered along the chain shown (N, C = ends).
# What was measured:
# MRSA [1] = settings: cited from earlier work
# Description: Host cytotoxicity of AMPs is a major limitation in their application as antimicrobial drugs. […] Not only that, but DNA damage was not detected in each cell treated with IP in neutral comet assay (Fig. 6). […] Moreover, in the hemolytic assay, we observed minimal hem ... || Treating MRSA infection is challenging owing to the remarkable ability of S. aureus to develop resistance to multiple antibiotics, thus limiting the number of viable therapeutic options. New anti-MRSA drugs called DAP were developed recently, but DAP-resistant bacteria have already been reported. Therefore, there is an urgent need to develop novel antimicrobials with unique mechanisms of action to combat MRSA, one of which is AMP [4]. It has been reported that tick AMP derived from Ornithodoros moubata, with an amino acid sequence similar to that of OMBAC (91 %) (Table 2) ...
# [2] = cited from earlier work
# Description: Host cytotoxicity of AMPs is a major limitation in their application as antimicrobial drugs. […] Not only that, but DNA damage was not detected in each cell treated with IP in neutral comet assay (Fig. 6). […] Moreover, in the hemolytic assay, we observed minimal hem ...
# BFFs-NCC1 = assay: Neutral comet assay, fibroblasts; assay type: cell-based, bovine; settings: neutral conditions
# Procedure: (§1) We prepared BFFs-NCC1 and BFCEs-K4DT treated or untreated with IP 50 μg/mL for 48 h as above experiment. These cells were harvested by centrifugation (800 g, 3 min) and washed with sterile Dulbecco’s Phosphate Buffered Saline (DPBS; GIBCO). To generate positive control for comet tails, a part of each cell is untreated with IP treated 25 μM KMnO4, and all samples placed for 20 min at 4 °C. The comet assay was performed under neutral conditions following the Trevigen protocol. Each cell at 1 × 10^5 cell/mL was combined with molten low-melting agarose at a ratio of 1 : 10 (vol /vol) and immediately pipetted 50 μL onto Comet slides. Slides were stored in the dark for 30 min at 4 °C before immersing in lysis solution overnight. The slides were immersed in freshly prepared neutral electrophoresis buffer (dissolved Tris base and sodium acetate in distilled water, pH 9.0) for 30 min at 4 °C. Gel electrophoresis was performed at 1 volt per cm (measured electrode to electrode) for 45 min in neutral electrophoresis buffer. The comet slides were immersed in DNA precipitation solution (7.5 M ammonium acetate containing 95 % ethanol) for 30 min at room temperature and then in 70 % ethanol for 30 min at room temperature. […] The slides were observed by fluorescence microscopy FSX100 (Olympus, Tokyo, Japan).
# BFCEs-K4DT = assay: Neutral comet assay, colon epithelial cells; assay type: cell-based, bovine; settings: neutral conditions
# Procedure: as §1
# MSSA = assay: Short-time killing assay, MSSA; assay type: cell-based, Staphylococcus aureus; settings: 1 h at 37 °C; for Susceptibility in short-time killing assay: colony count, % of control, triplicate
# Procedure: (§2) We selected 3 strains each of MSSA and MRSA used in the growth inhibition test. Unlike the growth inhibition test described above, an additional growth inhibition test was conducted using small test tubes. Each mixture of bacteria and peptide solution was incubated for 1 h at 37 °C. After the incubation, 100 μL aliquots were removed from the tubes and inoculated on TS agar plates. The plates were incubated overnight at 37 °C, after which colonies were counted. The same control was prepared as in the growth inhibition test described above. The data were then converted and expressed as a percentage (sample per control).
# [3] = system: methicillin-susceptible S. aureus (MSSA) clinical strains; assay: Growth inhibition test (MIC), MSSA; assay type: cell-based, Staphylococcus aureus; settings: all 9 clinical isolates of MSSA
# Procedure: (§3) In the growth inhibition test, we used 9 clinical strains of methicillin-susceptible S. aureus (MSSA) and 9 clinical strains of MRSA from patients in Jichi Medical University Hospital, using these strains in past report. The bacteria were grown in Trypto Soya (TS; Nissui, Tokyo, Japan) broth for 18–19 h at 37 °C.
# (§4) The optical density at 660 nm (OD660) of pre-cultured bacteria was measured using an Ubest-35 (JASCO Corporation, Tokyo, Japan). The adjustment for an OD660 of 0.5 was conducted by adding TS broth. The bacteria were diluted to a final concentration of 1–5 × 10^4 colony forming units (CFUs) /mL with TS broth, after which 50 μL of bacterial suspension and 50 μL of peptide solution were mixed together in a 96-well plate. The peptide solution was prepared by two-fold dilution in TS broth, while the IP solution was prepared to final peptide concentrations of 40, 20, 10, 5, 2.5, 1.25, 0.625, 0.313, 0.157, and 0.079 μg/mL. Each mixture of bacteria and peptide solution was incubated at 37 °C. The OD660 of the cell suspension was measured after 20–24 h incubation by using a Synergy™ HT (BioTek, Winooski, VT, USA). A control was prepared by mixing 50 μL of bacterial suspension, 40 μL of TS broth, and 10 μL of HBSS. The minimal inhibitory concentration (MIC) of the peptides was defined as the lowest concentration of peptide that reduced growth by >90 %.
# MRSA [4] = assay: Short-time killing assay, MRSA; assay type: cell-based, Staphylococcus aureus; settings: 1 h at 37 °C
# Procedure: as §2
# [5] = system: bovine fetal fibroblasts (BFFs-NCC1); assay: Effect on mammalian cell growth, fibroblasts; assay type: cell-based; settings: 50 μg/mL, 24 h or 48 h, trypan blue staining, automatic cell counter; triplicate
# Procedure: (§5) In this study, we used bovine fetal fibroblasts (BFFs-NCC1) and bovine fetal colon epithelial cells (BFCEs-K4DT), which were maintained in the Laboratory of Animal Breeding and Genetics, Tohoku University Graduate School of Agricultural Science. The BFFs-NCC1 and BFCEs-K4DT were cultured in a cell culture dish and wrapped 12-well plates. The nutrient medium of each cell was Dulbecco’s modified Eagle’s medium (DMEM; Nacalai Tesque, Kyoto, Japan or Mediatech, Inc, Manassas, VA, USA) containing 10 % fetal bovine serum (Invitrogen, Carlsbad, CA, USA) and a 1 % antibiotic-antimycotic mixed stock solution (Nacalai Tesque). Then each cell was seeded into 12-well plates at 1 × 10^4 cell/well and 1 × 10^5 cell/well. After overnight incubation, the nutrient mediums were changed to DMEM with IP (0, 5, 10, 50 μg/mL), and cells were incubated for 24 h or 48 h (BFCEs-K4DT only 48 h) at 37 °C. Then, these were collected and measured using a trypan blue staining method, with an EVE™ Automatic cell counter (NanoEnTeK, Seoul, Korea). For BFCEs-K4DT, the morphology of untreated control (IP 0 μg/mL) and treated cell (IP 50 μg/mL) was observed.
# [6] = system: bovine fetal colon epithelial cells (BFCEs-K4DT); assay: Effect on mammalian cell growth and morphology, colon epithelial cells; assay type: cell-based; settings: 50 μg/mL, 48 h
# Procedure: as §5
# MRSA clinical strains = assay: Growth inhibition test (MIC), MRSA; assay type: cell-based, Staphylococcus aureus; settings: all 9 clinical isolates of MRSA
# Procedure: as §3, §4
# [7] = positive control, 25 μM, 20 min at 4 °C
molecule,measurement,setting,value
"GYGCPFNQYQCHSHCSGIRGYKGGYCKGTFKQTCKCY [(No use), 91 % similar to OMBAC]",MIC against MRSA,MRSA [1],low MIC
melittin,Antimicrobial activity against MRSA,MRSA [1],antimicrobial activity against MRSA
same,Hemolytic activity,[2],hemolytic activity
"[K+].[O]=[Mn](=[O])(=[O])[O-] [KMnO4, reference compound]",DNA damage (comet tails),BFFs-NCC1; [7],some comet tails
same,DNA damage (comet tails),BFCEs-K4DT; [7],some comet tails
"CC[C@H](C)[C@@H]1NC(=O)[C@H](CO)NC(=O)[C@H](CCCNC(=N)N)NC(=O)[C@@H]2CSSC[C@@H](C(=O)N[C@@H](Cc3ccc(O)cc3)C(=O)N[C@@H](CO)C(=O)N[C@@H](CCCNC(=N)N)C(=O)O)NC(=O)[C@H]([C@@H](C)O)NC(=O)[C@@H]3CSSC[C@H](NC(=O)[C@H](C)NC(=O)CNC(=O)[C@H](CCC(N)=O)NC(=O)[C@H](CC(N)=O)NC(=O)[C@H](Cc4ccccc4)NC(=O)[C@@H]4CCCN4C(=O)[C@@H](NC(=O)CNC(=O)[C@H](Cc4ccccc4)NC(=O)CN)CSSC[C@H](NC(=O)[C@H](Cc4ccc(O)cc4)NC(=O)CNC(=O)CNC(=O)[C@H](CCCNC(=N)N)NC(=O)[C@H](CCCNC(=N)N)NC(=O)CNC1=O)C(=O)N[C@@H](C)C(=O)NCC(=O)N[C@@H](CC(C)C)C(=O)N[C@@H](Cc1ccccc1)C(=O)N[C@@H](CCCCN)C(=O)N[C@@H](CCC(N)=O)C(=O)N[C@@H]([C@@H](C)O)C(=O)N3)C(=O)N[C@@H](Cc1c[nH]cn1)C(=O)N[C@@H](CCCNC(=N)N)C(=O)N[C@@H](Cc1c[nH]cn1)C(=O)N2 [IP, persulcatusin] (H-GFGCPFNQGACHRHCRSIGRRGGYCAGLFKQTCTCYSR-OH; disulfide 4-25, 11-33, 15-35 (inferred); N-terminus and C-terminus assumed)",Bactericidal activity within 1 h,MSSA; MSSA,dose-dependent bactericidal activity
same,Susceptibility in short-time killing assay,MSSA; strain MS-3,susceptible
same,Susceptibility in short-time killing assay,MSSA; strains MS-1 and MS-2,relatively resistant
same,MIC at which growth of all 9 clinical isolates was inhibited,[3],1.25 µg/mL
same,DNA damage (comet tails),BFFs-NCC1; 50 μg/mL for 48 h,no comet tails
same,DNA damage (comet tails),BFCEs-K4DT; 50 μg/mL for 48 h,no comet tails
same,Bactericidal activity within 1 h,MRSA [4]; MRSA,dose-dependent bactericidal activity
same,Susceptibility in short-time killing assay,"MRSA [4]; all MRSA strains (MR-1, 2, 3), colony count, % of control, triplicate",susceptible
same,Number of cells after treatment,[5],no significant differences
same,Cell morphology after treatment,[6],no morphological change
same,Number of cells after treatment,"[6]; trypan blue staining, automatic cell counter, triplicate",no significant differences
same,MIC at which growth of all 9 clinical isolates was inhibited,MRSA clinical strains,2.5 µg/mL
